Experiments:
K-Ras G12D = target: T1, K-Ras G12D (Homo sapiens, UniProt P01116, G12D); experiment: PPI-HTRF assay, K-Ras G12D / SOS1 interaction; type: biochemical; details: HTRF, K-Ras G12D; read-out: PPI-HTRF-5 nM (K-Ras G12D IC50)
T1 construct: made in house; host or cells: E. coli, e.g. BL21 (DE3)
Excerpt: (§1) This assay can be also used to assess a selective inhibition or reduction of signaling output of a mutant Ras protein relative to a wildtype, or relative to a different mutant Ras protein. For example, the equilibrium interaction of wildtype Kras or K-Ras mutant (e.g., wildtype or a mutant thereof) with SOS1 (e.g., hSOS1) can be assessed as a proxy or an indication for a subject compound's ability to bind and inhibit Ras protein. HTRF assay detects from (i) a fluorescence resonance energy transfer (FRET) donor (e.g., antiGST-Europium) that is bound to GST-tagged K-Ras mutant to (ii) a FRET acceptor (e.g., anti-6His-XL665) bound to a His-tagged hSOS1.
(§2) The assay buffer can contain ˜5 mM HEPES pH 7.4, ˜150 mM NaCl, ˜1 mM DTT, 0.05% BSA and 0.0025% (v/v) Igepal. A Ras working solution is prepared in an assay buffer containing typically a suitable amount of the protein construct (e.g., GST-tagged K-Ras mutant) and the FRET donor (e.g., antiGST-Eu(K) from Cisbio, France). A SOS1 working solution is prepared in an assay buffer containing suitable amount of the protein construct (e.g., His-hSOS1) and the FRET acceptor (e.g., anti-6His-XL665 from Cisbio, France). A suitable amount of the protein construct will depend on the range of activity or range of IC50 values being detected or under investigation. For detecting IC50 within a range of 500 nM, the protein constructs of the same range of molarity can be utilized.
(§3) A fixed volume of DMSO with or without test compound is transferred into a 384-well plate. Ras working solution is added to all wells of the test plate. SOS1 working solution is added to all wells except for those that are subsequently filled the inhibitor control solution. Upon incubation for about 10 minutes or longer, the fluorescence is measured with a M1000Pro plate reader (Tecan) using HTRF detection (excitation 337 nm, emission 1: 620 nm, emission 2: 665 nm). Compounds are tested in duplicate at different concentrations (for example, 10 μM, 2.5 μM, 0.63 μM, 0.16 μM, 0.04 μM, 0.01 μM test compound). The ratiometric data (i.e., emission 2 divided by emission 1) is used to calculate IC50 values against Ras using GraphPad Prism (GraphPad software). Following this general procedure, samples are tested with or without a subject compound disclosed herein including compounds exemplified in Table 1 to assess their abilities to inhibit a mutant K-Ras relative to another K-Ras (e.g., different mutant or wildtype). Signaling output measured in terms of IC50 values can be obtained, a ratio of IC50 against one mutant relative to another mutant can be calculated. For instance, a selective reduction of K-Ras G12D signaling output can be evidenced by a ratio greater than one. In particular, a selective reduction of K-Ras G12D signaling relative to K-Ras WT signaling is evidenced if the ratio of IC50 (against K-Ras WT) to IC50 (against K-Ras G12D) is greater than 1.

GP2D cells = experiment: Ras cellular assay, cell proliferation GP2D; type: cell-based
Procedure: (§4) For example, this assay can be also used to assess selective growth inhibition of a mutant Ras protein relative to a wildtype, or relative to a different mutant Ras protein.
ASPC-1 (ATCC CRL-1682), Panc-10.05 (ATCC CRL-2547), A427, GP2d cell lines or any other cell lines comprising a G12D mutation can be used to assess Ras cellular signaling in vitro, e.g., in response to a compound described herein. For example, ASPC-1 culture medium is prepared with RPMI-1640 and 10% heat-inactivated FBS. Panc-10.05 culture medium is prepared with RPMI-1640, 10 Units/mL human recombinant insulin, and 10% FBS. A427 cell culture is prepared with RPMI-1640 and 10% heat-inactivated FBS. A CellTiter-Glo (CTG) luminescent based assay (Promega) is used to assess growth of the cells, as a measurement of the ability of the compounds herein to inhibit Ras signaling in the cells. The cells (e.g., 800 per well) are seeded in their respective culture medium in standard tissue culture-treated 384-well format plates (Falcon #08-772-116) or ultra-low attachment surface 384-well format plates (S-Bio #MS-9384UZ). The day after plating, cells are treated with a dilution series (e.g., a 9 point 3-fold dilution series) of the compounds herein (e.g., approximately 40 μL final volume per well). Cell viability can be monitored (e.g., approximately 5 days later) according to the manufacturer's recommended instructions, where the CellTiter-Glo reagent is added (e.g., approximately 10 μL), vigorously mixed, covered, and placed on a plate shaker (e.g., approximately for 20 min) to ensure sufficient cell lysis prior to assessment of luminescent signal. The IC50 values are determined using the four parameter fit. The resulting IC50 value is a measurement of the ability of the test compound to reduce cell growth of Ras-driven cells (e.g., tumor cell lines) in vitro and/or in vivo.

K-Ras G12S = target: T2, K-Ras G12S (Homo sapiens, UniProt P01116, G12S); experiment: PPI-HTRF assay, K-Ras G12S / SOS1 interaction; type: biochemical; details: read-out: PPI-HTRF-5 nM (K-Ras G12S IC50)
T2 construct: made in house; host or cells: E. coli, e.g. BL21 (DE3)
T2 sequence (P01116 1-188 isoform P01116-2 G12S): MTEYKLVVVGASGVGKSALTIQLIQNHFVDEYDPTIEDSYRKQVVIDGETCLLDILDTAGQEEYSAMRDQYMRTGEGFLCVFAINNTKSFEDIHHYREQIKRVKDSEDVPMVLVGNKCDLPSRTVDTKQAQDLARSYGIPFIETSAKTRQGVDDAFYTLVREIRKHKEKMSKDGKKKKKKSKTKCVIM
Excerpt: as §1, §2, §3

K-Ras G12V = target: T3, K-Ras G12V (Homo sapiens, UniProt P01116, G12V); experiment: PPI-HTRF assay, K-Ras G12V / SOS1 interaction; type: biochemical; details: HTRF, K-Ras G12V; read-out: PPI-HTRF-5 nM (K-Ras G12V IC50)
T3 construct: made in house; host or cells: E. coli, e.g. BL21 (DE3)
T3 sequence (P01116 1-188 isoform P01116-2 G12V): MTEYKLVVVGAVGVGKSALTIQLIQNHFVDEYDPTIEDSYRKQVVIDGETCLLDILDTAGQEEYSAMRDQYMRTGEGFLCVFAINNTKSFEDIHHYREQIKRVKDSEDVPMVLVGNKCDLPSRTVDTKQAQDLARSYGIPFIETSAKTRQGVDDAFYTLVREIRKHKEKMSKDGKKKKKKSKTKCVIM
Excerpt: as §1, §2, §3

wildtype K-Ras = target: T4, wildtype K-Ras (Homo sapiens, UniProt P01116); experiment: PPI-HTRF assay, wildtype K-Ras / SOS1 interaction; type: biochemical; details: HTRF, K-Ras wt; read-out: PPI-HTRF-5 nM (K-Ras wt IC50)
T4 construct: made in house; host or cells: E. coli, e.g. BL21 (DE3)
T4 sequence (P01116 1-188 isoform P01116-2): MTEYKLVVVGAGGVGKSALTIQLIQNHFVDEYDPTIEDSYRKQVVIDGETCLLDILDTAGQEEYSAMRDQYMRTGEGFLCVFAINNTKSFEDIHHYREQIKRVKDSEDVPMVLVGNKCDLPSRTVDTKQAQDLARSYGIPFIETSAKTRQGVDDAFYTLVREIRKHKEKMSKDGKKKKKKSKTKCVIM
Excerpt: as §1, §2, §3

SW620 cells = experiment: Ras cellular assay, cell proliferation SW620; type: cell-based; details: Homo sapiens, SW-620
Excerpt: as §4

T1 sequence (P01116 1-188 isoform P01116-2 G12D): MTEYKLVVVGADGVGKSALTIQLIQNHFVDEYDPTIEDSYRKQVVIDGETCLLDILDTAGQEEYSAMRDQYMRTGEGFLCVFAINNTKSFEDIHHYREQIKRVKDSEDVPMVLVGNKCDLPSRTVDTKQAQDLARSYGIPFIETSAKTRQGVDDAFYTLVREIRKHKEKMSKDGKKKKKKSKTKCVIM

Row | SMILES | IC50 (K-Ras G12D) | IC50 (GP2D cells) | IC50 (K-Ras G12S) | IC50 (K-Ras G12V) | IC50 (wildtype K-Ras) | IC50 (SW620 cells)
1 | N#Cc1c(N)sc2c(F)ccc(-c3c(Cl)c4c5c(nc(OC[C@@]67CCCN6C[C@H](F)C7)nc5c3F)N3CCC(C#N)CC3CO4)c12 (single isomer, unassigned) [compound 211] | < 5 µM | < 5 µM | – | – | – | –
2 | N#Cc1c(N)sc2c(F)ccc(-c3c(Cl)c4c5c(nc(OCC67CCCN6C[C@H](F)C7)nc5c3F)N3CCCCC3CCO4)c12 (single isomer, unassigned) [compound 184] | < 5 µM | < 5 µM | – | – | – | –
3 | N#Cc1c(N)sc2c(F)ccc(-c3c(Cl)c4c5c(nc(OC[C@@]67CCCN6C[C@H](F)C7)nc5c3F)N3C[C@H](O)C[C@@H]3CCO4)c12 [compound 164, 2-amino-4-((2R,13aS)-10-chloro-8-fluoro-6-(((2R,7aS)-2-fluorotetrahydro-1H-pyrrolizin-7a(5H)-yl)methoxy)-2-hydroxy-1,2,3,12,13,13a-hexahydropyrrolo[1′,2′:5,6][1,5]oxazocino [4,3,2-de]quinazolin-9-yl)-7-fluorobenzo[b]thiophene-3-carbonitrile] | < 5 µM | < 5 µM | < 5 µM | < 5 µM | < 5 µM | < 5 µM
4 | N#CCC1CCN2c3nc(OC[C@@]45CCCN4C[C@H](F)C5)nc4c(F)c(-c5ccc(F)c6sc(N)c(C#N)c56)c(Cl)c(c34)OCC2C1 (single isomer, unassigned) [compound 162] | – | < 5 µM | – | – | – | –
5 | N#Cc1c(N)sc2c(F)ccc(-c3c(Cl)c4c5c(nc(OC[C@@]67CCCN6C[C@H](F)C7)nc5c3F)N3CCC[C@@H]3CC(C(F)F)O4)c12 (single isomer, unassigned) [compound 212] | < 5 µM | < 5 µM | – | – | – | < 5 µM
6 | N#Cc1c(N)sc2c(F)ccc(-c3c(Cl)c4c5c(nc(OC[C@@]67CCCN6C[C@H](F)C7)nc5c3F)N3CC5(CCN5C(=O)n5cncn5)CC3CO4)c12 (stereo partly drawn) [compound 190, 2-amino-4-(6′-chloro-4′-fluoro-2′-(((2R,7aS)-2-fluorotetrahydro-1H-pyrrolizin-7a(5H)-yl)methoxy)-1-(1H-1,2,4-triazole-1-carbonyl)-8a′,9′-dihydro-8′H,11′H-spiro[azetidine-2,10′-pyrrolo[2′,1′:3,4][1,4]oxazepino[5,6,7-de]quinazolin]-5′-yl)-7-fluorobenzo[b]thiophene-3-carbonitrile] | < 5 µM | < 5 µM | – | – | – | –
7 | N#Cc1c(N)sc2c(F)ccc(-c3c(Cl)c4c5c(nc(OC[C@@]67CCCN6C[C@H](F)C7)nc5c3F)N3CCC[C@@H]3CCO4)c12 [compound 183, 2-amino-4-((13aR)-10-chloro-8-fluoro-6-(((2R,7aS)-2-fluorotetrahydro-1H-pyrrolizin-7a(5H)-yl)methoxy)-1,2,3,12,13,13a-hexahydropyrrolo[1′,2′:5,6][1,5]oxazocino [4,3,2-de]quinazolin-9-yl)-7-fluorobenzo[b]thiophene-3-carbonitrile] | – | < 5 µM | – | – | – | –
8 | COCCN1c2nc(OC[C@@]34CCCN3C[C@H](F)C4)nc3c(F)c(-c4ccc(F)c5sc(N)c(C#N)c45)c(Cl)c(c23)OCC2COCC21 (stereo partly drawn) [compound 163, 2-amino-4-(6-chloro-4-fluoro-2-(((2R,7aS)-2-fluorotetrahydro-1H-pyrrolizin-7a(5H)-yl)methoxy)-12-(2-methoxyethyl)-8a,9,11a,12-tetrahydro-8H,11H-furo[3′,4′:6,7][1,5]oxazocino[4,3,2-de]quinazolin-5-yl)-7-fluorobenzo[b]thiophene-3-carbonitrile] | < 5 µM | – | < 5 µM | < 5 µM | < 5 µM | –
9 | CCN[C@@H]1CC[C@H]2COc3c(Cl)c(-c4ccc(F)c5sc(N)c(C#N)c45)c(F)c4nc(OC[C@@]56CCCN5C[C@H](F)C6)nc(c34)N2C1 [compound 119, 2-amino-4-((5aS,8R)-3-chloro-8-(ethylamino)-1-fluoro-12-(((2R,7aS)-2-fluorotetrahydro-1H-pyrrolizin-7a(5H)-yl)methoxy)-5,5a,6,7,8,9-hexahydropyrido[2′,1′:3,4][1,4]oxazepino [5,6,7-de]quinazolin-2-yl)-7-fluorobenzo[b]thiophene-3-carbonitrile] | < 5 µM | – | < 5 µM | < 5 µM | < 5 µM | –
10 | CC(O)C1C[C@H]2CCCN2c2nc(OC[C@@]34CCCN3C[C@H](F)C4)nc3c(F)c(-c4ccc(F)c5sc(N)c(C#N)c45)c(Cl)c(c23)O1 (single isomer, unassigned) [compound 135] | – | < 5 µM | – | – | – | > 5 µM
11 | N#Cc1c(N)sc2c(F)ccc(-c3c(Cl)c4c5c(nc(OCC67CCCN6C[C@H](F)C7)nc5c3F)N3CCC(OC(F)F)CC3CO4)c12 (single isomer, unassigned) [compound 118] | < 5 µM | – | < 5 µM | < 5 µM | < 5 µM | –
12 | CN1c2nc(OC[C@@]34CCCN3C[C@H](F)C4)nc3c(F)c(-c4ccc(F)c5sc(N)c(C#N)c45)c(Cl)c(c23)OC2COCC21 (stereo partly drawn) [compound 166, 2-amino-4-(6-chloro-4-fluoro-2-(((2R,7aS)-2-fluorotetrahydro-1H-pyrrolizin-7a(5H)-yl)methoxy)-11-methyl-7a,8,10a,11-tetrahydro-10H-furo[3′,4′:2,3][1,4]oxazepino[5,6,7-de]quinazolin-5-yl)-7-fluorobenzo[b]thiophene-3-carbonitrile] | < 5 µM | – | < 5 µM | < 5 µM | < 5 µM | –
13 | N#Cc1c(N)sc2c(F)ccc(-c3c(Cl)c4c5c(nc(OC[C@@]67CCCN6C[C@H](F)C7)nc5c3F)N3[C@H](CO4)C[C@@H]3COC(F)F)c12 [compound 210, 2-amino-4-((8aS,10R)-6-chloro-10-((difluoromethoxy)methyl)-4-fluoro-2-(((2R,7aS)-2-fluorotetrahydro-1H-pyrrolizin-7a(5H)-yl)methoxy)-8,8a,9,10-tetrahydroazeto[2′,1′:3,4][1,4]oxazepino [5,6,7-de]quinazolin-5-yl)-7-fluorobenzo[b]thiophene-3-carbonitrile] | > 5 µM | – | > 5 µM | > 5 µM | > 5 µM | –

Source: US12059425B2, “Heterocyclic compounds and uses thereof” (Kumquat Biosciences Inc., priority 2022, dated 2024)
